In US20260234211A1, “POLYPEPTIDE HAVING MODIFIED STRUCTURE AND USE THEREOF” (Guangdong Raynovent Biotech Co., Ltd., priority 2023, published 2026):

Molecular target: T1, GLP-1R (Homo sapiens, UniProt P43220)
T1 construct: host or cells: HEK293
Assay: In vitro GLP-1R agonistic activity test (cAMP, HEK293 cell line)
Format: cell-based
Conditions: cAMP, HEK293 cells expressing GLP-1R; read-out: GLP-1 EC50
Protocol: The cell lines were constructed by Pharmaron Inc. See details in the table below.
The test compounds were diluted at a 5-fold dilution factor in 10 points, starting from an initial concentration of 200 nM.
1) The cell lines were cultured respectively in complete medium at 37° C. and 5% CO2.
1) Eu-cAMP tracer was freeze-thawed and diluted 50 fold with detection buffer; and Ulight-anti-cAMP was freeze-thawed and diluted 150 fold with detection buffer.
3) 10 μL of Eu-cAMP tracer was added and then 10 μL of Uligh-anti-cAMP was added into experimental wells respectively.
4) The reaction plate was centrifuged at 200 g at room temperature for 30 s and left for stand at 25° C. for 1 h.

T1 sequence (P43220 24-463, species assumed): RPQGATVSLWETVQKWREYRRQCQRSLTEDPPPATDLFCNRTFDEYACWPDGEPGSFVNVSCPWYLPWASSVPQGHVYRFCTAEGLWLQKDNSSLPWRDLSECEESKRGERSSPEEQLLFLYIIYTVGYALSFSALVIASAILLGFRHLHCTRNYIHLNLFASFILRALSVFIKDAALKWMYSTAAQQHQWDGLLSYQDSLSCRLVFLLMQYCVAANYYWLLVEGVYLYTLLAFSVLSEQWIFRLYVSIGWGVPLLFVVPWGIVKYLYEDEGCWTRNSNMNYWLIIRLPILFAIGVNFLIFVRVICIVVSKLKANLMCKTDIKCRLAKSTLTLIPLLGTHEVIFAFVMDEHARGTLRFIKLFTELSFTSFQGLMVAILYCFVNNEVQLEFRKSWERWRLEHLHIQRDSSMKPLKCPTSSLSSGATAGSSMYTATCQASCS

Compound | EC50 [pM]
CC[C@H](C)[C@H](NC(=O)[C@H](Cc1ccccc1)NC(=O)[C@@H]1CCCCNC(=O)CN(C(=O)[C@@H](N)CCCCNC(=O)[C@@H](N)CCCCNC(=O)CC[C@H](NC(=O)CCCCCCCCCCCCCCCCCCC(=O)O)C(=O)O)CC(=O)NCCCC[C@H](NC(=O)[C@H](CCCCN)NC(=O)[C@H](CC(=O)O)NC(=O)[C@H](CC(C)C)NC(=O)[C@](C)(CC(C)C)NC(=O)[C@@H](NC(=O)[C@H](CO)NC(=O)[C@H](Cc2ccc(O)cc2)NC(=O)[C@H](CC(=O)O)NC(=O)[C@H](CO)NC(=O)[C@@H](NC(=O)[C@H](Cc2ccccc2)NC(=O)[C@@H](NC(=O)CNC(=O)[C@H](CCC(N)=O)NC(=O)C(C)(C)NC(=O)[C@@H](N)Cc2ccc(O)cc2)[C@@H](C)O)[C@@H](C)O)[C@@H](C)CC)C(=O)N[C@@H](C)C(=O)N[C@@H](CCC(N)=O)C(=O)NC(C)(C)C(=O)N1)C(=O)N[C@@H](CCC(=O)O)C(=O)N[C@@H](Cc1ccccc1)C(=O)N[C@@H](CC(C)C)C(=O)N[C@@H](CC(C)C)C(=O)N[C@@H](CCC(=O)O)C(=O)NCC(=O)NCC(=O)N1CCC[C@H]1C(=O)N[C@@H](CO)C(=O)N[C@@H](CO)C(=O)NCC(=O)N[C@@H](C)C(=O)N1CCC[C@H]1C(=O)N1CCC[C@H]1C(=O)N1CCC[C@H]1C(=O)N[C@@H](CO)C(N)=O [Example 22, YAibQGT FTSDY SIα- MeLLD K^1KAQAib ^1KFIEF LLEGG PSSGA PPPS-NH2 (SEQ ID NO: 25)] | 9
CC[C@H](C)[C@H](NC(=O)[C@H](Cc1ccccc1)NC(=O)[C@H](C)NC(=O)C(C)(C)NC(=O)[C@H](CCC(N)=O)NC(=O)[C@H](C)NC(=O)[C@@H]1CCCCNC(=O)CN(C(=O)COCCOCCNC(=O)[C@@H](N)CCCCNC(=O)CC[C@H](NC(=O)CCCCCCCCCCCCCCCCCCC(=O)O)C(=O)O)CC(=O)NCCCC[C@H](NC(=O)[C@](C)(CC(C)C)NC(=O)[C@@H](NC(=O)[C@H](CO)NC(=O)[C@H](Cc2ccc(O)cc2)NC(=O)[C@H](CC(=O)O)NC(=O)[C@H](CO)NC(=O)[C@@H](NC(=O)[C@H](Cc2ccccc2)NC(=O)[C@@H](NC(=O)CNC(=O)[C@H](CCC(N)=O)NC(=O)C(C)(C)NC(=O)[C@@H](N)Cc2ccc(O)cc2)[C@@H](C)O)[C@@H](C)O)[C@@H](C)CC)C(=O)N[C@@H](CC(=O)O)C(=O)N[C@@H](CCCCN)C(=O)N1)C(=O)N[C@@H](CCC(=O)O)C(=O)N[C@@H](Cc1ccc(O)cc1)C(=O)N[C@@H](CC(C)C)C(=O)N[C@@H](CC(C)C)C(=O)N[C@@H](CCCCN)C(=O)NCC(=O)NCC(=O)N1CCC[C@H]1C(=O)N[C@@H](CO)C(=O)N[C@@H](CO)C(=O)NCC(=O)N[C@@H](C)C(=O)N1CCC[C@H]1C(=O)N1CCC[C@H]1C(=O)N1CCC[C@H]1C(=O)N[C@@H](CO)C(N)=O [Example 54, YAibQGT FTSDY SIα- MeL^1KD K^1KAQAib AFIEY LLKGG PSSGA PPPS-NH2 (SEQ ID NO: 38)] | 2
